PubChem BioAssay AID1159585 (Gregory J. Crowther, 2016)
pIC50: −log10 of the molar value.

Each molecule was assayed against Calcium-dependent protein kinase 1 (Plasmodium falciparum (isolate 3D7)) (UniProt P62344) (assay: PfCDPK1 kinase inhibitors, biochemical, TCAMS library (AID 1159585;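 also: inhibitors leave more ATP so luminescence rises with inhibition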)). Details: recombinant PfCDPK1, Kinase-Glo ATP depletion luminescence.
Sequence of Calcium-dependent protein kinase 1 (Plasmodium falciparum (isolate 3D7)) (P62344 whole entry, looked up): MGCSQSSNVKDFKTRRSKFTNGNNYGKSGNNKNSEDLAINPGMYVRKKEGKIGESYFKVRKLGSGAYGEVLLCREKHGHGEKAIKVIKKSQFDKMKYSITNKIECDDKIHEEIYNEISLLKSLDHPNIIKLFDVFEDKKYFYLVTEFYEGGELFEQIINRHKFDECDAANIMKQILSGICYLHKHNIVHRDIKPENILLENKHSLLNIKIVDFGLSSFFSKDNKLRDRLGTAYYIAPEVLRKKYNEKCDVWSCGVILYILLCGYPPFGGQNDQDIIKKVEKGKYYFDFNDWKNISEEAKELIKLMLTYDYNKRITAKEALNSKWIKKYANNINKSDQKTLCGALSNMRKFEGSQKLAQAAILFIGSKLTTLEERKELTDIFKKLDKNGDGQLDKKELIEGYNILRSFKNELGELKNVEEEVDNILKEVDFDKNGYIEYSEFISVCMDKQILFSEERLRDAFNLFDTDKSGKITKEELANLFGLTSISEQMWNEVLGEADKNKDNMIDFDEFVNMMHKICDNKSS
`COc1ccc(-c2cnc3[nH]cc(-c4ccncc4)c3c2)cc1OC` gave a pIC50 of 6.41. Work on `O=C(Nc1cccc(-c2nn3ccccc3c2-c2ccnc(Nc3cccc(-c4cnco4)c3)n2)c1)C1CCCCC1` yielded a pIC50 of 6.79. With `NCC(NC(=O)c1ccc(-c2c[nH]c3ncccc23)s1)c1ccccc1` (stereo unspecified) the pIC50 was 7.54. With `CN(C)CCOc1ccc(-c2cc(-c3ccc(Cl)c(O)c3)c(-c3ccnc(N)n3)o2)cc1` the pIC50 was 6.77. `Nc1ncc(-c2cn[nH]c2)cc1-c1nc2ccc(F)cc2[nH]1` was tested, and the pIC50 was 6.82. `CCn1c(-c2nonc2N)nc2c(-c3cccc(NC(=O)Nc4ccc(C(F)(F)F)cc4)c3)ncc(OCCCN)c21` gave a pIC50 of 6.02. With `COc1ccc(Nc2ncc(C#N)c(Nc3ccccc3C(N)=O)n2)cc1N1CCN(C)CC1` the pIC50 was 7.05. For `Cc1cc(Nc2ncc(C#N)c(Nc3ccccc3C(N)=O)n2)ccc1N1CCN(C)CC1`, the pIC50 was 8.00. Molecule `CC(C)(CNCc1ccc(F)c(F)c1)c1nc(-c2ccc(Cl)c(O)c2)c(-c2ccnc(N)n2)[nH]1` has a pIC50 of 6.33. Work on `CC(C)(CNCc1ccccc1)c1nc(-c2ccc(Cl)c(O)c2)c(-c2ccncc2)[nH]1` yielded a pIC50 of 6.72. With `NS(=O)(=O)c1cccc(Nc2nccc(-c3c(-c4cccc(NC(=O)c5c(F)cccc5F)c4)nn4ccccc34)n2)c1` the pIC50 was 7.70. Work on `CC(C)(CN)c1nc(-c2ccc(Br)c(O)c2)c(-c2ccncc2)[nH]1` yielded a pIC50 of 7.72. For `O=C(Nc1cccc(-c2nn3ncccc3c2-c2ccnc(Nc3cccc(-c4cnco4)c3)n2)c1)c1c(F)cccc1F`, the pIC50 was 7.64. `COc1ccc(-c2cnc3ccc(NCCCO)nn23)cc1OC` was tested, and the pIC50 was 6.44. In the case of `COc1cc(Nc2nccc(-c3c(-c4cccc(NC(=O)c5c(F)cccc5F)c4)nn4ccccc34)n2)cc(OC)c1OC`, the pIC50 was 7.22. `O=C(NCCN1CCC(c2ccncc2)CC1)c1cccc(Nc2nccc(Nc3ccc(Oc4ccccc4)cc3)n2)c1` gave a pIC50 of 6.66. In the case of `CCn1c(-c2nonc2N)nc2c(-c3cccc(Cl)c3)ncc(OCCCNCc3cnc(C)nc3N)c21`, the pIC50 was 6.57. In the case of `Cc1csc(-c2ncc(OC[C@@H](N)Cc3ccccc3)cc2-c2ccc3n[nH]c(C)c3c2)c1`, the pIC50 was 7.36. `COc1ccc(-c2cnc3ccc(NC4CCC(O)CC4)nn23)cn1` (stereo unspecified) gave a pIC50 of 6.42. Molecule `CCN(CC)CCOc1ccc(Nc2ncc3cc(-c4c(Cl)cccc4Cl)c(=O)n(C)c3n2)cc1` has a pIC50 of 6.11. `COCCOc1ccc(Nc2nccc(-c3c(-c4cccc(NC(=O)c5c(F)cccc5F)c4)nn4ccccc34)n2)cc1Cl` was tested, and the pIC50 was 6.82. With `CN1CCN(Cc2cccc(-c3ccc4c(Nc5cc(O)c(Cl)cc5F)ccnc4c3)c2)CC1` the pIC50 was 6.12. `CS(=O)(=O)CCNCc1cccc(-c2ccc3c(Nc4cc(O)c(Cl)cc4F)ccnc3c2)c1` was tested, and the pIC50 was 7.15. With `CCn1c(-c2nonc2N)nc2c(-c3cccc(NC(=O)Nc4cccc(Cl)c4)c3)ncc(OCCCN)c21` the pIC50 was 6.42. Work on `CN1CCC=C(C(=O)NCC(C)(C)c2nc(-c3ccc(Cl)c(O)c3)c(-c3ccncc3)[nH]2)C1` yielded a pIC50 of 6.67. Molecule `O=C(Nc1cccc(-c2nn3ncccc3c2-c2ccnc(Nc3ccccc3)n2)c1)c1c(F)cccc1F` has a pIC50 of 7.41. For `CCn1c(-c2nc(-c3ccnc(N4CCN(C)CC4)c3)cnc2N)nc2cc(S(C)(=O)=O)ccc21`, the pIC50 was 6.18. `CC(C)(CN)c1nc(-c2ccc(Cl)c(O)c2)c(-c2ccncc2)[nH]1` was tested, and the pIC50 was 8.00. In the case of `O=C(Nc1c(F)cccc1F)c1cccc(-c2nn3ccccc3c2-c2ccnc(Nc3cccc(-c4cnco4)c3)n2)c1`, the pIC50 was 7.40. With `Fc1cc(Cl)ccc1Nc1ccnc2cc(-c3ccc(CNCCN4CCOCC4)o3)ccc12` the pIC50 was 6.42. With `NCCNC(=O)c1ccc(-c2cnc3[nH]cc(-c4ccc(C(N)=O)cc4)c3c2)cc1` the pIC50 was 7.62. `CCn1c(-c2nonc2N)nc2c(-c3cccc(NC(=O)Nc4ccccc4Cl)c3)ncc(OCCCN)c21` was tested, and the pIC50 was 7.14. With `CS(=O)(=O)c1cccc(-c2cnc3[nH]cc(-c4cccc(CCN)c4)c3c2)c1` the pIC50 was 7.36. With `CCCN1CCN(CCNC(=O)c2cccc(Nc3nccc(Nc4ccc(Oc5ccccc5)cc4)n3)c2)CC1` the pIC50 was 6.47. `COc1ccc2nc(-c3cc(-c4ccc(NC(C)=O)cc4)cnc3N)[nH]c2c1` was tested, and the pIC50 was 6.30. For `O=c1[nH]ccc2nc(N[C@@H]3CCNC3)nc(Nc3ccc4c(c3)S(=O)(=O)CC4)c12`, the pIC50 was 6.63.
